# Measured values reported in patent publication US20110152166A1, “METHOD OF MODULATION OF PROTEIN PHOSPHORYLATION-DEPENDENT CONFORMATIONAL TRANSITIONS WITH LOW MOLECULAR WEIGHT COMPOUNDS” (priority 2006, published 2011).
# Columns and labels:
# GST-S6K11-365 = test: Surface plasmon resonance, S6K1 binding to tail peptides; design: species or system rat; details: K144N versus wt
# Protocol: FIG. 13. The tail phosphate synergistically enhances the ability of the HM phosphate to activate S6K, dependent on the tail phosphate-binding site. (A) The kinase activity of purified kinase domain of S6K1 (S6K11-364), pre-phosphorylated by PDK1 in the activation loop, was determined in the presence of increasing concentrations of synthetic S6K1 tail peptide (residues 366-395) that was either non-phosphorylated (S371/T389), phosphorylated at Ser371 (pS371/T389) or Thr389 (5371/pT389) or phosphorylated at both sites (pS371/pT389). (B) The kinase activity of S6K11-364 and S6K11-364K144N, either pre-phosphorylated or not by PDK1, was determined in the absence or presence of 90 μM S371/pT389 or pS371/pT389. (C) pS371/pT389 S6K1 tail peptide was biotinylated and used to coat streptavidin Sensor Chips. The chips were thereafter analyzed for binding to purified GST-S6K11-365 or GST-56K11-365K144N. (A-C) Experiments were repeated at least 3 times and activity data (expressed as percent) are means±SD.
# Sixty 146 cm^2 dishes with COST cells were co-transfected with pEBG-2T-S6K1-365 and pCMV5-myc-PDK1 (ratio 3:1) using calcium phosphate precipitation or with pEBG-2T-PKCζ and pCMV5-myc-PDK1 (ratio 3:1) using Fugene HD according to the manufacturers Instructions. Two days after transfection, the cells were harvested in lysis buffer as described above. […]
# [1] = molecular target: T1, Thr221-phosphorylated S6K11-364 (Rattus norvegicus, UniProt P67999); test: S6K1 in vitro reconstitution kinase assay with tail peptides; format: biochemical
# T1 construct: Purified HA-S6K1-364 was incubated with synthetic S6K1 (rat) tail peptides; made in house; host or cells: COS7, co-transfected with myc-PDK1; anti-HA immunoprecipitate
# Source text: We established an in vitro reconstitution assay that could test a direct activation of the AGC kinase domain by the tail phosphate and characterize its cooperation with the HM and activation loop phosphates. The deletion mutant S6K11-364, which contains the kinase domain, but lacks the region of the tail containing the tail site and the HM as well as the C-terminal autoinhibitory domain, was expressed and purified from COS7 cells, either non-phosphorylated or phosphorylated at T221 in the activation loop, achieved by co-expression with PDK1. Purified S6K11-364 was then incubated with synthetic peptides of the S6K1 tail (residues 366-395: QTPVDS^371PDDSTLSESANQVFLGFT^389YVAPSV), which were either non-phosphorylated (S371/T389), phosphorylated at the tail site (pS371/T389), phosphorylated in the HM (S371/pT389) or phosphorylated at both sites (pS371/pT389). Subsequently, the kinase activity of S6K11-364 was determined.
# Kinase assays for PKB, RSK, S6K, MSK were done as described previously (Frodin et al., 2002). […] After washing with 150 mM orthophosphoric acid, [^32P]phosphate incorporated into peptide substrate was quantified in an FLA-3000 apparatus (Fujifilm). […]
# T1 sequence (P67999 24-387): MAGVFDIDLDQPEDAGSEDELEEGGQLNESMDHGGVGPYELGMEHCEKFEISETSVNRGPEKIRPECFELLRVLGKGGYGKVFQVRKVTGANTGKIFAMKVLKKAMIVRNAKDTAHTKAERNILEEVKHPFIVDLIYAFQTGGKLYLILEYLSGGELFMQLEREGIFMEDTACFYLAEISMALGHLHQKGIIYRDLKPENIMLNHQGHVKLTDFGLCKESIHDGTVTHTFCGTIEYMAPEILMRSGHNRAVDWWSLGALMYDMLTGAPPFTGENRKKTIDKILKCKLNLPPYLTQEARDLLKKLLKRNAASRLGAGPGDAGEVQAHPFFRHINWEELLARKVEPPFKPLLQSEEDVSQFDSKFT
substance,measurement,setting,value
pS371/T389: synthetic S6K1 tail peptide (residues 366-395) phosphorylated at the tail site,decrease of binding of S6K11-365 to peptide by the K144N mutation,GST-S6K11-365,about 40%
same,stimulation of kinase activity (in words),[1],did not stimulate
